Experimental data published in patent US8309570B2, “Treatment of central neuropathic pain” (Analgesic Neuropharmaceuticals, LLC, priority 2001, dated 2012).
Entries after “also recorded” stand apart in the source; their conditions may differ. Counter-ions that a name gives are not always drawn.

Columns and labels:
SCI pain [1] = settings: acute parenteral administration; cited from earlier work
[2] = system: central neuropathic pain following traumatic spinal cord injury; test: Randomized, double-blind, double-dummy, 2x2 factorial crossover trial: spontaneous pain, pain relief, patient satisfaction; format: in vivo, human; settings: for patients choosing treatment as best pain relief / patients choosing treatment as best, balance between analgesia and side effects: at completion of the study, p=0.04; for SCI (spontaneous) pain compared to placebo: chronic oral administration; for overall patient satisfaction at the end of each treatment period, compared to placebo: dextromethorphan p<0.001, gabapentin p<0.01, combination p<0.001; for patients with at least moderate or better pain relief: of 18 patients, end of 5-week treatment
Description: Central neuropathic pain following traumatic spinal cord injury (SCI) may be severe and refractory to standard analgesics. Pharmacologic agents that target distinct pathophysiological pain mechanisms theoretically could provide pain relief for these patients. The analgesic efficacy of dextromethorphan and gabapentin in combination, dextromethorphan alone, gabapentin alone, and placebo, in patients with pain following SCI was evaluated in a randomized, double-blind, double-dummy, 2×2 factorial, Latin Square crossover trial, we evaluated the four treatments. Each treatment was titrated over 4 weeks and maintained at the individual's […] until the end of Week 5. Each treatment period was followed by a 1-week washout period or until pain returned to baseline. Primary efficacy measure was mean pain intensity during the 5-week treatment period, measured by the 20-point Gracely pain intensity scale.
Patients with 1) central neuropathic pain secondary to traumatic SCI in persons >18 years of age, 2) moderate pain for at least 50% of the day for at least 3 months, 3) concurrent use of no more than two analgesics at a stable dose (e.g. tricyclic antidepressants, anticonvulsants, nonsteroidal antiinflammatory drugs, or limited use of low-potency short-acting opioids), and 4) 100% compliance in rating their overall pain intensity 5-times daily in a diary for 1 week, were recruited nationwide between July 1997 and April 1999 using written announcements and by physician referrals.
(§1) All patients were followed as outpatients. Patients were randomly assigned to a sequence of the 4 treatments. Each of the 4 treatment periods consisted of 5 weeks. Each treatment period was separated by a 1-week washout period, with the requirement that pain return to baseline level. Dextromethorphan (Endo Inc., Neptune, N.J.; and its externally identical placebo) and gabapentin (Neurontin, Pfizer, Inc., Ann Arbor, Mich.; and its externally identical placebo) were dispensed using a double-dummy design; thus, the dextromethorphan:gabapentin dose-ratio was maintained at 1:5. Subjects started at 120 mg/day of dextromethorphan vs. placebo and 600 mg/day of gabapentin vs. placebo, and titrated according to a fixed schedule until they reached the ceiling doses equivalent to 600 mg/day of dextromethorphan or 3000 mg/day of gabapentin or their maximally tolerated dose (the dose just causing side effects, MTD). The titration regimen and the number of capsules per dose for each treatment were the same in each treatment group, in order to maintain double blinded conditions.
The primary endpoint was mean spontaneous pain intensity averaged weekly, from the start of study drug until the end of Week 5 for each treatment period and overall for the 5 weeks, assessed in a diary in which pain ratings were recorded 5-times daily, and evaluated with the 20-point Gracely pain scale based on 13 words (“faint” to “extremely intense”) (Gracely R H, et al. Pain 5:5-18(1978)).
Secondary endpoints were assessed at a clinic visit on the final day of each treatment period, and included: 1) Global Pain Intensity (6-item categorical scale); 2) Global Pain Relief (6-item categorical scale); 3) pain intensity (Gracely Scale) of individual pain descriptors (burning pain; aching pain; tingling pain; cold pain; brief lancinating pain; deep stabbing pain; constricting pain; and touch-evoked pain (allodynia)); 4) areas of evoked pain: a) allodynia and b) pinprick-evoked hyperalgesia; 5) quality of life, assessed using the Duke Health Profile (Parkerson, G R, et al. Medical Care 28:1056-1069(1990)). 6) Patient Satisfaction (5-item categorical scale); 7) patients' assessment of best treatment. Allodynia was mapped by stroking the skin with the distal 5 mm of the corner of a 2×2 gauze sponge at standard pressure, at a rate of 1 cm/sec. Pinprick-evoked hyperalgesia was mapped using a standard safety pin that was pressed against the skin until dimpling was visible. […]

[3] = system: central neuropathic pain following traumatic spinal cord injury; test: Crossover trial: evoked pain (touch-evoked allodynia, pinprick-evoked hyperalgesia); format: in vivo, human; settings: for intensity of touch-evoked allodynia, compared to placebo: 14 subjects with allodynia, dextromethorphan p=0.03, gabapentin p=0.01, combination p=0.001; for mean area of allodynia after treatment / mean area of allodynia, reduction from baseline: baseline 362±496 cm^2; for mean area of pinprick hyperalgesia after treatment / mean area of pinprick hyperalgesia, reduction from baseline: baseline 371±523 cm^2; for areas of pinprick hyperalgesia, difference: combination p=0.03, dextromethorphan p=0.02, gabapentin p=0.03
Description: (§2) Secondary endpoints were assessed at a clinic visit on the final day of each treatment period, and included: 1) Global Pain Intensity (6-item categorical scale); 2) Global Pain Relief (6-item categorical scale); 3) pain intensity (Gracely Scale) of individual pain descriptors (burning pain; aching pain; tingling pain; cold pain; brief lancinating pain; deep stabbing pain; constricting pain; and touch-evoked pain (allodynia)); 4) areas of evoked pain: a) allodynia and b) pinprick-evoked hyperalgesia; 5) quality of life, assessed using the Duke Health Profile (Parkerson, G R, et al. Medical Care 28:1056-1069(1990)). 6) Patient Satisfaction (5-item categorical scale); 7) patients' assessment of best treatment. Allodynia was mapped by stroking the skin with the distal 5 mm of the corner of a 2×2 gauze sponge at standard pressure, at a rate of 1 cm/sec. Pinprick-evoked hyperalgesia was mapped using a standard safety pin that was pressed against the skin until dimpling was visible. Ambient temperature was maintained at 24 degrees centigrade. All mapping took place within a 30-minute period. The delineated areas of evoked pain were recorded using photographs of 4 views (anterior/posterior/right lateral/left lateral), which were scanned, and the areas of each of the 4 views were summed to determine the composite area.

[4] = system: central neuropathic pain following traumatic spinal cord injury; test: Crossover trial: quality of life, Duke Health Profile; format: in vivo, human; settings: for Pain domain, compared to placebo: combination p=0.002, dextromethorphan p=0.001, gabapentin p=0.03
Description: as §2

[5] = Crossover trial: adverse effects; format: in vivo, human; settings: for confusion, proportion of patients / dizziness, proportion of patients / euphoria, proportion of patients / fatigue, proportion of patients / somnolence, proportion of patients / speech difficulty, proportion of patients / urinary incontinence, proportion of patients / urinary tract infection, proportion of patients: human, in vivo, oral, 5 weeks
Description: Presence and intensity (5-item categorical scale) of adverse effects were assessed continuously using an open question.

[6] = Crossover trial: titration to maximally tolerated dose (MTD); format: in vivo, human; settings: drug alone; for mean dose during Week 5: after 4 weeks of titration to MTD; for maximum daily dose administered: titration to MTD
Excerpt: as §1

neuropathic pain = settings: cited from earlier work
spinally injured rats = settings: repeated doses; cited from earlier work
SCI pain [7] = settings: chronic oral agents; cited from earlier work

Row | SMILES | patients choosing treatment as best pain relief [2] [%] | patients choosing treatment as best, balance between analgesia and side effects [2] [%] | overall patient satisfaction at the end of each treatment period, compared to placebo [2] | patients with at least moderate or better pain relief [2] [%] | intensity of touch-evoked allodynia, compared to placebo [3] | mean area of allodynia after treatment [3] [cm^2] | mean area of allodynia, reduction from baseline [3] [%] | mean area of pinprick hyperalgesia after treatment [3] [cm^2] | mean area of pinprick hyperalgesia, reduction from baseline [3] [%] | areas of pinprick hyperalgesia, difference [3] | Pain domain, compared to placebo [4] | confusion, proportion of patients [5] [%] | dizziness, proportion of patients [5] [%] | euphoria, proportion of patients [5] [%] | fatigue, proportion of patients [5] [%] | somnolence, proportion of patients [5] [%] | speech difficulty, proportion of patients [5] [%] | urinary incontinence, proportion of patients [5] [%] | urinary tract infection, proportion of patients [5] [%] | mean dose during Week 5 [6] [mg/day] | further results
1 | CNC1(c2ccccc2Cl)CCCCC1=O (centres unmarked) [ketamine] | – | – | – | – | – | – | – | – | – | – | – | – | – | – | – | – | – | – | – | – | spontaneous and evoked SCI pain (SCI pain [1]): reduced both spontaneous and evoked SCI pain
2 | COc1ccc2c(c1)[C@]13CCCC[C@@H]1[C@H](C2)N(C)CC3 [dextromethorphan, dextromethorphan hydrobromide] | 33.3 | 17.5 | significantly better | 50 | significantly reduced | 183±321 | 49 | 122±287 | 67 | significant difference | significantly better than placebo | 33 | 67 | 24 | 52 | 62 | 10 | 5 | 38 | 416 ± 34 | SCI (spontaneous) pain compared to placebo ([2]; hydrobromide): significant reduction; also recorded: superior to placebo; intensity of burning pain, compared to placebo ([2]; combination p=0.005, dextromethorphan p=0.001): significant relief; brief paroxysms of lancinating pain, compared to placebo ([2]; combination p=0.03, dextromethorphan p=0.003): significant relief; Physical Health measure, compared to placebo ([4]; combination p=0.001, dextromethorphan p=0.02): significantly better than placebo; General Health measure, compared to placebo ([4]; combination p=0.01, dextromethorphan p=0.04): significantly better than placebo; proportion of patients with cognitive side effects, compared to either placebo or gabapentin ([5]; p<0.002): significantly larger proportion; proportion of patients with other side effects, compared to placebo ([5]; p=0.01): significantly larger proportion; mean daily dose [6]: 416 mg; maximum daily dose administered [6]: 470 ± 29 mg/day; analgesic effect in patients with neuropathic pain (neuropathic pain; dextromethorphan alone at 81 mg/day): inability; effect in patients with peripheral neuropathic pain (neuropathic pain; human, in vivo): marginal effect
3 | NCC1(CC(=O)O)CCCCC1 [gabapentin] | 27.8 | 23.5 | significantly better | 39 | significantly reduced | 106±231 | 71 | 152±332 | 59 | significant difference | significantly better than placebo | 22 | 22 | 6 | 33 | 33 | 0 | 11 | 22 | 2657 ± 155 | SCI (spontaneous) pain compared to placebo [2]: significant reduction; also recorded: superior to placebo; area of allodynia, compared to placebo ([3]; combination p=0.05, gabapentin p=0.02): significant difference from placebo; mean daily dose [6]: 2657 mg; maximum daily dose administered [6]: 2717 ± 148 mg/day; chronic hypersensitivity (spinally injured rats): alleviated chronic hypersensitivity
4 | O=c1n(CCCN2CCN(c3cccc(Cl)c3)CC2)nc2ccccn12 [trazodone] | – | – | – | – | – | – | – | – | – | – | – | – | – | – | – | – | – | – | – | – | results of randomized controlled trials in SCI pain (SCI pain [7]): negative
5 | Cc1cccc(C)c1OCC(C)N (centres unmarked) [mexiletine] | – | – | – | – | – | – | – | – | – | – | – | – | – | – | – | – | – | – | – | – | results of randomized controlled trials in SCI pain (SCI pain [7]): negative
